Converted amounts (≈) assume the structure as drawn. Like-named read-outs stand apart in the source and are kept apart here.
How the values were obtained:
[1] = test system: Streptococcus pyogenes C203; assay: ED50 in mice experimentally infected with S. pyogenes C203 (Table XI); format: in vivo; conditions: Streptococcus pyogenes, doses given 1 and 4 hours postinfection, read-out: ED50
Outline: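 Protective ED50 (mg/kg × 2) was determined as the dose sparing half the animals. Test compound was given twice, at 1 and 4 hours after experimental S. pyogenes C203 infection of mice.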

[2] = test system: Staphylococcus aureus 19C; assay: MIC, broth-dilution microtiter test (Table X); format: cell-based
Source text: (§1) The MIC's in Table X were obtained using conventional broth-dilution microtiter tests.

[3] = test system: Mycoplasma hyopneumoniae S5972; assay: MIC, broth-dilution microtiter test (Table X); format: cell-based; conditions: Mesomycoplasma hyopneumoniae, read-out: MIC
Source text: as §1

[4] = test system: Pasteurella hemolytica 22C; assay: MIC, broth-dilution microtiter test (Table X); format: cell-based; conditions: read-out: MIC
Source text: as §1

Mycoplasma synoviae 40A = assay: MIC, broth-dilution microtiter test (Table X); format: cell-based; conditions: Mycoplasmopsis synoviae, read-out: MIC
Source text: as §1

[5] = test system: Pasteurella multocida 60A; assay: MIC, broth-dilution microtiter test (Table X); format: cell-based; conditions: Avian isolate, read-out: MIC
Source text: as §1

Mycoplasma hyorhinis 29E = assay: MIC, broth-dilution microtiter test (Table X); format: cell-based; conditions: read-out: MIC
Source text: as §1

[6] = test system: Mycoplasma gallisepticum 29C; assay: MIC, broth-dilution microtiter test (Table X); format: cell-based; conditions: Mycoplasmoides gallisepticum, read-out: MIC
Source text: as §1

Streptococcus sp. 19F = assay: MIC, broth-dilution microtiter test (Table X); format: cell-based; conditions: read-out: MIC
Source text: as §1

[7] = test system: Pasteurella multocida 17E; assay: MIC, broth-dilution microtiter test (Table X); format: cell-based; conditions: Bovine isolate, read-out: MIC
Source text: as §1

[8] = test system: Streptococcus pyogenes C203; assay: MIC, standard agar-dilution assay (Table IX); format: cell-based; conditions: read-out: MIC
Escherichia coli N10 = assay: MIC, standard agar-dilution assay (Table IX); format: cell-based; conditions: read-out: MIC
Pasteurella multocida [9] = assay: Pasteurella infection in one-day-old chicks, medicated drinking water (Table XIII); format: in vivo; conditions: Administered in the available drinking water at 2 g/gal
Procedure: Many of the C-20 modified derivatives of this invention have also shown in vivo antibacterial activity against infections induced by gram-negative bacteria. Tables XII and XIII summarize the results of tests in which illustrative compounds were evaluated against a Pasteurella infection in one-day-old chicks. The compounds were administered parenterally or orally after challenge of the chicks with Pasteurella multocida (0.1 ml of a 10^-4 dilution of a twenty-hour tryptose broth culture of an avian P. multocida given subcutaneously). In these tests, unless indicated otherwise, all non-medicated infected chicks died within 24 hours of Pasteurella challenge. In the tests summarized in Table XII, the compounds were administered by subcutaneous injection at a dosage of 30 mg/kg, 1 and 4 hours post-challenge of the chicks with P. multocida. In the tests summarized in Table XIII the compounds were administered in medicated drinking water (at a level of 2 g/gal) available from 4 to 20 hours prior to challenge of the chicks with P. multocida and during the 3 -day test period.
^a Administered in the available drinking water at a concentration of […]

Klebsiella X26 = assay: MIC, standard agar-dilution assay (Table IX); format: cell-based; conditions: read-out: MIC
[10] = test system: Staphylococcus aureus X400; assay: MIC, standard agar-dilution assay (Table IX); format: cell-based; conditions: Staphylococcus aureus X400, Methicillin-resistant strain, read-out: MIC
[11] = test system: Staphylococcus epidermidis EPI1; assay: MIC, standard agar-dilution assay (Table IX); format: cell-based; conditions: Staphylococcus epidermidis EPI1; agar-dilution; read-out: MIC
[12] = test system: Haemophilus influenzae 76; assay: MIC, standard agar-dilution assay (Table IX); format: cell-based; conditions: Haemophilus influenzae 76, Ampicillin-resistant strain, read-out: MIC
Staphyloccus aureus X1.1 = assay: MIC, standard agar-dilution assay (Table IX); format: cell-based, Staphylococcus aureus; conditions: Staphylococcus aureus, read-out: MIC
Escherichia coli EC14 = assay: MIC, standard agar-dilution assay (Table IX); format: cell-based; conditions: read-out: MIC
[13] = test system: Staphylococcus aureus S13E; assay: MIC, standard agar-dilution assay (Table IX); format: cell-based; conditions: Staphylococcus aureus, S13E
Staphylococcus aureus = assay: MIC, broth-dilution microtiter test (Table X); format: cell-based; conditions: read-out: MIC
Source text: as §1

[14] = test system: Streptococcus Group D X66; assay: MIC, standard agar-dilution assay (Table IX); format: cell-based; conditions: read-out: MIC
[15] = test system: Haemophilus influenzae C.L.; assay: MIC, standard agar-dilution assay (Table IX); format: cell-based; conditions: Ampicillin-sensitive strain, read-out: MIC
[16] = Titratable groups in 66% aqueous DMF (Tables XIV-XVI); format: physicochemical
Source text: ^c Run in 66% aqueous DMF
^d Run in 66% aqueous DMF

Pasteurella multocida [17] = assay: Pasteurella infection in one-day-old chicks, subcutaneous administration (Table XII); format: in vivo; conditions: Administered subcutaneously, 30 mg/kg × 2, 1 and 4 hours post-challenge
Outline: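 Treatment was 30 mg/kg s.c., given twice (1 and 4 h after infection). The infection itself was induced in day-old chicks by s.c. injection of 0.1 ml of avian Pasteurella multocida culture (20-h tryptose broth, diluted 10^-4).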

[18] = test system: Staphylococcus aureus V41; assay: MIC, standard agar-dilution assay (Table IX); format: cell-based; conditions: Staphylococcus aureus V41, Penicillin-resistant strain, read-out: MIC
[19] = test system: Staphylococcus epidermidis 222; assay: MIC, standard agar-dilution assay (Table IX); format: cell-based; conditions: read-out: MIC
[20] = test system: Streptococcus Group D 2041; assay: MIC, standard agar-dilution assay (Table IX); format: cell-based; conditions: GROUPD2041, read-out: MIC
Escherichia coli TEM = assay: MIC, standard agar-dilution assay (Table IX); format: cell-based; conditions: read-out: MIC
[21] = test system: Streptococcus pneumoniae Park I; assay: MIC, standard agar-dilution assay (Table IX); format: cell-based; conditions: Streptococcus pneumoniae Park I; agar-dilution; read-out: MIC

CCC1OC(=O)CC(O)C(C)C(OC2OC(C)C(O)C(N(C)C)C2O)C(CCN2CCC3CCCCC32)CC(C)C(=O)C=CC(C)=CC1COC1OC(C)C(O)C(OC)C1OC (centres unmarked) [Compound D44]
ED50 ([1]; C203, Oral): 37.9 mg/kg | ED50 ([1]; C203, sc, Subcutaneous): 0.69 mg/kg | MIC [2]: 3.12 µg/mL (≈ 3.54 µM) | MIC [3]: 0.39 µg/mL (≈ 0.443 µM) | MIC [4]: 12.5 µg/mL (≈ 14.2 µM) | MIC (Mycoplasma synoviae 40A): 0.097 µg/mL (≈ 0.11 µM) | MIC [5]: 12.5 µg/mL (≈ 14.2 µM) | MIC (Mycoplasma hyorhinis 29E): 50 µg/mL (≈ 56.7 µM) | MIC [6]: 1.56 µg/mL (≈ 1.77 µM) | MIC (Streptococcus sp. 19F): 1.56 µg/mL (≈ 1.77 µM) | MIC [7]: 12.5 µg/mL (≈ 14.2 µM)

CCC1OC(=O)CC(O)C(C)C(OC2OC(C)C(O)C(N(C)C)C2O)C(CCN2CCC3(CCCCC3)CC2)CC(C)C(=O)C=CC(C)=CC1COC1OC(C)C(O)C(OC)C1OC (centres unmarked) [Compound D43]
ED50 ([1]; C203, Oral): 8 mg/kg | ED50 ([1]; C203, sc, Subcutaneous): 1.34 mg/kg | MIC [2]: 1.56 µg/mL (≈ 1.72 µM) | MIC [3]: 0.78 µg/mL (≈ 0.858 µM) | MIC [4]: 6.25 µg/mL (≈ 6.87 µM) | MIC (Mycoplasma synoviae 40A): < 0.048 µg/mL | MIC [5]: 6.25 µg/mL (≈ 6.87 µM) | MIC (Mycoplasma hyorhinis 29E): 25 µg/mL (≈ 27.5 µM) | MIC [6]: 0.195 µg/mL (≈ 0.214 µM) | MIC (Streptococcus sp. 19F): 1.56 µg/mL (≈ 1.72 µM) | MIC [7]: 6.25 µg/mL (≈ 6.87 µM)

CCC1OC(=O)CC(O)C(C)C(OC2OC(C)C(O)C(N(C)C)C2O)C(CCN2CCCC2)CC(C)C(=O)C=CC(C)=CC1COC1OC(C)C(O)C(OC)C1OC (centres unmarked) [Compound D1, 20-DH-DO-20-(pyrrolidin-1-yl)desmycosin]
MIC [8]: 1 µg/mL (≈ 1.21 µM) | MIC (Escherichia coli N10): > 128 µg/mL | Number of Deaths/Number Treated (Pasteurella multocida [9]): 9/10 | ED50 ([1]; C203, Oral): > 50 mg/kg | ED50 ([1]; C203, sc, Subcutaneous): 1.2 mg/kg | MIC (Klebsiella X26): 16 µg/mL (≈ 19.3 µM) | MIC [10]: 2 µg/mL (≈ 2.42 µM) | MIC [11]: 2 µg/mL (≈ 2.42 µM) | MIC [12]: 16 µg/mL (≈ 19.3 µM) | MIC (Staphyloccus aureus X1.1): 2 µg/mL (≈ 2.42 µM) | MIC (Escherichia coli EC14): > 128 µg/mL | MIC [13]: 2 µg/mL (≈ 2.42 µM) | MIC [3]: 12.5 µg/mL (≈ 15.1 µM) | MIC [4]: 6.25 µg/mL (≈ 7.56 µM) | MIC (Mycoplasma synoviae 40A): 0.39 µg/mL (≈ 0.472 µM) | MIC [5]: 6.25 µg/mL (≈ 7.56 µM) | MIC (Mycoplasma hyorhinis 29E): 50 µg/mL (≈ 60.5 µM) | MIC [6]: 12.5 µg/mL (≈ 15.1 µM) | MIC (Streptococcus sp. 19F): 6.25 µg/mL (≈ 7.56 µM) | MIC (Staphylococcus aureus): 0.78 µg/mL (≈ 0.943 µM) | MIC [7]: 6.25 µg/mL (≈ 7.56 µM) | MIC [14]: 32 µg/mL (≈ 38.7 µM) | MIC [15]: 16 µg/mL (≈ 19.3 µM) | pKa ([16]; Titratable groups): 9.5 | pKa ([16]; Titratable groups (first value)): 7.9 | Number of Deaths/Number Treated (Pasteurella multocida [17]): 0/10 | MIC [18]: 2 µg/mL (≈ 2.42 µM) | MIC [19]: 1 µg/mL (≈ 1.21 µM) | MIC [20]: 16 µg/mL (≈ 19.3 µM) | MIC (Escherichia coli TEM): 128 µg/mL (≈ 155 µM) | MIC [21]: 0.5 µg/mL (≈ 0.605 µM)

— patent publication US4820695A, “C-20-dihydro-deoxy-(cyclic amino)-derivatives of macrolide antibiotics” (priority 1987, dated 1989)
